From patent publication US20060172361A1, “Assay for detection of translocase enzyme activity in drug screening” (AstraZeneca AB, priority 2000, published 2006)

Tests used:
transferase enzyme = experiment: Scintillation proximity assay of transferase alone, with pre-formed Lipid I and Tunicamycin block, using E. coli AMA1004 ΔponB membranes (Example 4); format: biochemical, Escherichia coli; conditions: after subtracting 0% reaction readings
Procedure: Microbiol., (1985), 131, 2839-2845. The plate was incubated for 20 min at 37° C.
(ii) Tunicamycin was then added to a final concentration of 10 μg/ml, followed by a test compound (e.g. Vancomycin or Nisin) of varying concentration in dimethyl sulphoxide. Nisin and Vancomycin are known antagonists of the transferase enzyme.
(iii) Then to the reaction well, in a 5 μl volume, the substrate for the transferase was added: 2.5 μM tritiated UDP-N-acetyl glucosamine (0.5 μCi per well). The microtitre plate was incubated for 5 min at 37° C.
(iv) The reaction was terminated by diluting out the radiolabel i.e. by addition of 25 μl of 200 μM unlabelled UDP-GlcNAc.

[1] = tested on: translocase and transferase enzymes; experiment: Scintillation proximity assay of Lipid II synthesis (translocase plus transferase) with lysozyme-prepared E. coli AMA1004 membranes (Example 3); conditions: 100 μM test compound; after subtracting 0% reaction readings
Procedure: (i) The wells of a microtitre plate were individually filled with a total volume of 25 μl of a reaction mixture comprising an aqueous buffer solution of 50 mM HEPES-ammonia (N-[2-Hydroxyethyl]piperazine-N′-[2-ethanesulfonic acid]) (pH 7.5), and 10 mM magnesium chloride 15 μM UDP-MurNAc-L-alanine-γ-D-glutamic acid-m-diaminopimelic acid-D-alanine-D-alanine, 2.5 μM tritiated UDP-N-acetyl glucosamine (0.2 μCi per well), 6 μg of Escherichia coli AMA1004 cell membranes prepared as described below and a solution of test compound (e.g. Tunicamycin, Vancomycin) of varying concentration in 4% dimethylsulphoxide.
Four wells of the microtitre plate were used as controls: two wells contained no UDP-N-acetylmuramylpentapeptide (0% reaction controls) and a further two wells contained no test compound (100% reaction controls).
If the purpose of the screen is to study the effect of an inhibitor of the transferase or translocase the test compound is added along with the substrates at step (i).
The E. coli membranes were prepared as follows.
Four to five colonies of the bacteria from an LB (Luria Bertani medium) agar plate were inoculated into 5 ml LB-broth and grown during the day (for 6-8 hours) at 37° C. […]
The plate was left for 3 hours/overnight at room temperature before being counted in the “Microbeta Trilux” counter.

Molecule | % Enzyme Activity (transferase enzyme; 10 μg/ml test compound) | % Inhibition [1] [%] | % Enzyme Activity (transferase enzyme; 100 μM test compound)
Nisin | ˜30% |  | 
CN[C@H](CC(C)C)C(=O)N[C@H]1C(=O)N[C@@H](CC(N)=O)C(=O)N[C@H]2C(=O)N[C@H]3C(=O)N[C@H](C(=O)N[C@H](C(=O)O)c4cc(O)cc(O)c4-c4cc3ccc4O)[C@H](O)c3ccc(c(Cl)c3)Oc3cc2cc(c3O[C@@H]2O[C@H](CO)[C@@H](O)[C@H](O)[C@H]2O[C@H]2C[C@](C)(N)[C@H](O)[C@H](C)O2)Oc2ccc(cc2Cl)[C@H]1O [Vancomycin] |  | 82 | ˜50%
